Literature values as cited in patent US20090197946A1, “COMPOSITION AND METHOD FOR TREATMENT OF INFLAMATION AND INFECTIONS OF THE GENITALIA, CONTRACEPTIVE AND THE PROPHYLAXIS OF SEXUALLY TRANSMITTED DISEASES” (priority 2008, published 2009).

Columns and labels:
vaginal epithelium = conditions: topical, African commercial sex workers
[1] = in vivo

Molecule | effect of frequent use on the vaginal epithelium (vaginal epithelium) | susceptibility to the HIV infection (vaginal epithelium; frequent use) | known potential side effects [1]
nonoxynol 9 | damaged the vaginal epithelium | increased their susceptibility to the HIV infection | 
CC(C)OC(=O)OCOP(=O)(CO[C@H](C)Cn1cnc2c(N)ncnc21)OCOC(=O)OC(C)C [Viread, Tenofovir] |  |  | nausea, diarrhea, vomiting and flatulence
